What was measured:
Human CCL2 (MCP-1) = assay: MCP1 secretion by ELISA after 24 h, PHH model for NASH, Example 2; type: cell-based; conditions: FFA+TNFα
Description: (§1) PHH from two healthy human donors (Lonza, TRL) were seeded on day 0 at density of 6e04 cells in 96 well optical microplates (Thermofisher) in hepatocyte plating media (William's E medium, WEM) (Gibco) supplemented with 10% heat-inactivated FBS (Atlanta Bio), 2 mM Glutamax (Gibco), and 0.2% Primocin (InVivoGen) and incubated for 6 hours at 37° C., 5% CO2. After 6 hours, cells were washed twice and incubated overnight at 37° C., 5% CO2 with Hepatocytes defined medium (Corning) supplemented with 2 mM Glutamax (Gibco), and 1× Penicillin/Streptomycin. On day 1, cells were washed twice and incubated for 24 h in the hepatocyte culture media in the same conditions described above.
(§2) On day 2, cells were washed twice with DPBS 1× (Gibco) to remove excess amino acids and maintained in pretreatment media (1×HMDB, a defined custom amino acid concentration based on the mean physiological concentrations in blood, in WEM±supplemental amino acids): • a. Amino acid-free WEM (US Biologicals) supplemented with 11 mM Glucose (Sigma), 0.272 mM Sodium Pyruvate (Sigma), 1× P/S (Gibco) and containing 1×HMDB with no supplemental amino acids; or • b. The same media described above 1×HMDB WEM with supplemental amino acid and amino acid combination treatments at various concentrations. Cells were maintained in the defined media (a. & b.) for 24 hours at 37° C., 5% CO2. The HMDB values are published in the Human Metabolome Database (Wishart D S, Tzur D, Knox C, et al., HMDB: the Human Metabolome Database. Nucleic Acids Res. 2007 January; 35 (Database issue):D521-6. 17202168; which is hereby incorporated by reference in its entirety). Co-Treatment with Free Fatty Acids and Amino Acids Combination
(§3) After 24 h pre-treatment, cells maintained in the pretreatment media±supplemental amino acids (section (a. & b.) described above) were exposed to free fatty acids (FFA) at 250 uM with a ratio of 2:1 (Oleate:Palmitate) supplemented with TNF-α (Thermofisher) at 1 ng/ml. Cells were incubated with the FFAs mixture (FFAs+TNF-α)±supplemental amino acids treatments for 24 hours at 37° C., 5% CO2. After 24 hours incubation, media was removed for cytokine analysis and replaced by fresh media containing the same conditions described above (FFAs mixture±supplemental amino acids treatments). Cells were incubated for an additional 48 hours for a total of 72 hours of FFA and TNF-α stimulation. After 72 hours of incubation, media was removed for albumin and urea analysis and the cells were fixed for nuclei and lipid staining.
Human CCL2 (MCP-1) was measured by ELISA (Human […] DuoSet ELISA, R&D Systems) at 1/20 dilution in 1× Reagent Diluent (Reagent Ancillary Kit 2, R&D Systems). MCP1 data in primary human hepatocytes treated with FFA+TNFα+supplemental amino acids was normalized to 1×HMDB WEM+FFA+TNFα baseline. Data is reported as median fold change from control, statistical analysis was done using t-Test.

[1] = tested on: primary human hepatocytes; assay: Intracellular lipid accumulation after 72 h by fluorescence microscopy, PHH model for NASH, Example 2; type: cell-based; conditions: FFA+TNFα; for Lipid Median (median fold change from control): 72 h
Description: as §1, §2, §3
After 72 hours, cells were washed twice in 100 ul PBS 1× (Gibco), fixed with 4% Paraformaldehyde, and washed twice with PBS 1× (100 ul). After fixation, lipids were stained with HCS LipidTOX Red Neutral (Thermofisher Scientific) diluted 1000× and nuclei were stained with Hoechst 3342 (Life Technologies) diluted to 4 ug/ml. The LipidTOX™ neutral lipid stain has an extremely high affinity for neutral lipid droplets that was detected by fluorescence microscopy using a high content imager (Molecular Devices). Data was normalized to the cell concentration determined by nuclei count. Images were analyzed and total lipid area was calculated using granularity module in MetaXpress 6 software. Data is reported as median fold change from control, statistical analysis was done using t-Test.

[2] = tested on: primary human hepatocytes; assay: Intracellular triglyceride level after 72 h, colorimetric assay, Example 3; type: cell-based
Description: On day 2, cells were washed twice with DPBS 1× (Gibco) and maintained in: • a. Amino acid-free WEM (US Biologicals) supplemented with 11 mM Glucose (Sigma), 0.272 mM Sodium Pyruvate (Sigma), 1× P/S (Gibco) and containing a defined custom amino acid concentration based on the mean physiological concentrations in blood (1× HMDB WEM (−) supplemental amino acids); or • b. The same media described above 1×HMDB WEM (+) supplemental amino acids treatment dose at a 30× of HMDB amino acid concentration. Cells were maintained in the defined amino acids media (a. & b.) for 24 hours at 37° C., 5% CO2. Co-Treatment with Free Fatty Acids and Various Amino Acids Supplemental Treatments
After 24 h pre-treatment, cells maintained in the same media (a. & b.) described above 1×HMDB±supplemental amino acids were now exposed to free fatty acids (FFA) at 250 uM with a ratio of 2:1 (Oleate:Palmitate) supplemented with TNF-α (Thermofisher) at 1 ng/ml or vehicle. Cells with the FFAs+TNFα mixture±amino acids treatments were incubated for 72 hours at 37° C., 5% CO2 with a media change after the first 24 hours.
After 72 hours, cells were washed once with cold PBS 1× (Gibco), scrapped off and collected into 75 ul of standard diluent (Cayman). Collected cells were vortexed for 1 min at a 2500 rpm speed followed by two times sonication (Elmasonic sonicator) for 1 min each. Supernatants were collected for triglyceride analysis after centrifugation at 1000 rpm for 10 min at 4° C. Intracellular triglyceride level was assessed using triglyceride colorimetric assay kit (Cayman) and following manufacturer's recommendations. Data was normalized to the total amount of protein using Bicinchoninic Acid Protein Assay Kit (Sigma). Data is reported as median fold change from FFAs+TNFα condition, statistical analysis was done using t-Test.

Procollagen III = Procollagen III secretion by ELISA, TGFβ1-stimulated hepatic stellate cells, Example 4; type: cell-based, human; conditions: HSC, three donors
Description: Primary human hepatic stellate cells were obtained from Samsara Sciences. Cells from three different donors were grown in Complete HSC Medium to ˜80% confluence in T75 or T150 flasks below passage 10 were seeded into sterile, collagen I coated, 96-well optical plastic microplates (ThermoScientific) and incubated overnight at 37° C., 5% CO2 in a humidified incubator in DMEM with 2% Fetal Bovine Serum and 1% Antimycotic. […] After 24 hours of stimulus, supernatant was removed and used to measure Procollagen III and cells were then washed and fixed with 4% paraformaldehyde for further staining. Procollagen III, an important biomarker of fibrosis was measured by ELISA (Human PCIII Elisa Kit, G-Biosciences) following the manufacturer's recommendations. Fixed cells with 4% paraformaldehyde were permeabilized with 0.1% Triton X-100 then immunostained for alpha SMA and labeled for EdU incorporation.

CC(=O)N[C@@H](CS)C(=O)O [Nac, N-acetylcysteine]
MCP1 secretion (in words) (Human CCL2 (MCP-1); hepatocyte donor 1): reduced MCP1 secretion
MCP1 secretion (in words) (Human CCL2 (MCP-1); hepatocyte donor 2): reduced MCP1 secretion
Lipid Median (median fold change from control) ([1]; donor 1, 5 mM): −0.013
Lipid Median (median fold change from control) ([1]; donor 2, 7.5 mM): −0.359
lipid accumulation (in words) ([1]; hepatocyte donor 1): did not reduce lipid accumulation
lipid accumulation (in words) ([1]; hepatocyte donor 2): reduced lipid accumulation but less than the previously described combinations
Triglyceride Level relative to the baseline FFA + TNF, Median ([2]; FFA + TNF, 72 h, two donors, AA Conc 1X, Nac/Car 7.5 mM): −1.172
triglyceride level (in words) ([2]; FFAs+TNFα, two healthy donors): reduces triglyceride level but the effect was less pronounced than the combinations described previously
procollagen III secretion (in words) (Procollagen III): decreased procollagen III secretion but at a lower extent than LIRNacCar and LIRQNacSCar
